These results are taken from patent publication US12187729B2, “Compounds having PDE9A inhibitory activity, and pharmaceutical uses thereof” (KOREA RESEARCH INSTITUTE OF CHEMICAL TECHNOLOGY, priority 2018, dated 2025).

PDE9A, sequence (O76083 whole entry): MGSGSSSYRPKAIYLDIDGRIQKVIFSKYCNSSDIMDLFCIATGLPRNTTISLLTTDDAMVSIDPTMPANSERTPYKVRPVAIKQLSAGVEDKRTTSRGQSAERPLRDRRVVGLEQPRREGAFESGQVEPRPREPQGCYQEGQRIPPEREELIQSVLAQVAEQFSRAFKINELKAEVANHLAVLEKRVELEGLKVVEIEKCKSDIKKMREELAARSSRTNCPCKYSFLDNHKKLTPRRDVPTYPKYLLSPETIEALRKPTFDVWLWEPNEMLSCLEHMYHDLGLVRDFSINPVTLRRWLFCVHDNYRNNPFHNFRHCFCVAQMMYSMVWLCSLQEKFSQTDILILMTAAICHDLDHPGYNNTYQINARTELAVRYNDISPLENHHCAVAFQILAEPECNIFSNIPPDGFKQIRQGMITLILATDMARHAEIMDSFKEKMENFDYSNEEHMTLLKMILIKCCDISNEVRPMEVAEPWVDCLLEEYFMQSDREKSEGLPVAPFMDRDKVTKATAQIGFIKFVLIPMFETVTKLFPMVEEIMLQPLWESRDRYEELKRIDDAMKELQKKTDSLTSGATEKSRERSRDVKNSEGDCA

The test deals with PDE9A (Homo sapiens (Human), UniProt O76083). Kind of test: PDE9A inhibitory activity, fluorescence polarization assay (IMAP-FP screening express kit). The class given is biochemical. To be noted: enzyme PDE9A 5 ng/ml, Fl-cGMP substrate 100 nM, room temperature 1 hour. How it is done:
The inhibitory activity of the representative compounds according to the present invention against phosphodiesterase 9A was tested based on the polarization assay (IMAP-FP screening express kit) provided by MDS (MDS Analytical Technologies, Sunyvale, CA, USA). As a buffer solution, a reaction solution (a reaction solution containing 0.01% Tween 20 provided by MDS was diluted 5 times, then 5 mM DTT is added) and a polarization detection solution (binding solution A and B provided by MDS were mixed at a ratio of 3:1 and IMAP binding reagent 1/600 was added) were prepared. 100 μM of the substrate (Fl-cGMP substrate; MDS) and 3.6 μg/ml of the enzyme PDE9A (ab54113; abeam) were prepared. 3.6 μg/ml PDE9A and 100 μM substrate were diluted to 20 ng/ml (final reaction concentration: 5 ng/ml) and 400 nM (final reaction concentration: 100 nM), respectively. The buffer solution used for all dilution and preparation processes was 1× reaction solution with 1 mM DTT added, and the polarization detection solution was used to induce polarization at the end.
The prepared samples were dispensed on black microplates (Multiwell 384 well plates, #3573, Corning Life Sciences, Lowell, MA, USA) using a 16-channel pipette (multi 16-channel, Finnpipette, Thermo Scientific, Essex, UK). The total reaction volume per well is 20 μl. At this time, 10 μl of 2% DMSO, 5 μl of substrate solution, and 5 μl of reaction solution were used as a negative control, and 10 μl of 2% DMSO, 5 μl of substrate solution, and 5 μl of PDE9A solution were used as a positive control. As the experimental group, 10 μl of the compound prepared in Example, 5 μl of the substrate solution, and 5 μl of the PDE9A solution were used. After pretreatment between the compound and the enzyme was performed for about […] before the enzyme-substrate reaction, 5 μl of cGMP was added to induce the enzyme reaction. During the reaction, each compound, enzyme, and substrate occupied 50%, 25%, and 25% of the total volume, respectively, and they were prepared at high concentrations of 2, 4, and 4 times, respectively, immediately before addition. After the enzymatic reaction, it was shaken lightly for 1 minute and the enzyme reaction was induced at room temperature for 1 hour. Then, 60 μl of a polarization detection solution prepared in advance was added to induce polarization.
Nanoparticles composed of trivalent metal ions are mixed in the fluorescence detection solution, which combines with phosphoric acid expose by enzymatic reaction to increase the molecular weight and induce polarization. After leaving for 2 hours at room temperature, the polarization (Fluorescence Polarization, FP) value was measured using a multilabel counter (Envision, PerkinElmer, Turku, Finland) (emission wavelength: P-535 nm, S-535 nm, excitation wavelength: 480 nm), and the result was expressed as an IC50 value, which is the concentration of the compound that inhibited PDE9A by 50% in vitro (Table 2).
With `O=C(CSc1nc2c(cnn2C2CCC(F)(F)CC2)c(=O)[nH]1)Nc1nnc(Br)s1` [Example 21, 2-((1-(4,4-difluorocyclohexyl)-4-oxo-4,5-dihydro-1H-pyrazolo[3,4-d]pyrimidin-6-yl)thio)-N-(5-bromo-1,3,4-thiadiazol-2-yl)acetamide], half-maximal inhibition (IC50) was put at 0.4 nM.
In turn, `CCc1nnc(NC(=O)CSc2nc3c(cnn3-c3ccccc3)c(=O)[nH]2)s1` [Example 5, N-(5-ethyl-1,3,4-thiadiazol-2-yl)-2-((4-oxo-1-phenyl-4,5-dihydro-1H-pyrazolo[3,4-d]pyrimidin-6-yl)thio)acetamide] showed an IC50 of 180 nM.
In the case of `CCSc1nnc(NC(=O)CSc2nc3c(cnn3C3CC3)c(=O)[nH]2)s1` [Example 40, N-(5-(ethylthio)-1,3,4-thiadiazol-2-yl)-2-((1-cyclopropyl-4-oxo-4,5-dihydro-1H-pyrazolo[3,4-d]pyrimidin-6-yl)thio)acetamide], the IC50 was determined as 39 nM.
The value for `CC(Sc1nc2c(cnn2-c2ccccc2)c(=O)[nH]1)C(=O)Nc1nnc(Br)s1` (stereo not shown) [Example 12, N-(5-bromo-1,3,4-thiadiazol-2-yl)-2-((4-oxo-1-phenyl-4,5-dihydro-1H-pyrazolo[3,4-d]pyrimidin-6-yl)thio)propanamide] was 7 nM; that for `CC(C)(C)c1nnc(NC(=O)CSc2nc3c(cnn3-c3ccccc3)c(=O)[nH]2)s1` [Example 22, N-(5-(tertiary-butyl)-1,3,4-thiadiazol-2-yl)-2-((4-oxo-1-phenyl-4,5-dihydro-1H-pyrazolo[3,4-d]pyrimidin-6-yl)thio)acetamide] was 100 nM; that for `O=C(CSc1nc2c(cnn2C2CCCCC2)c(=O)[nH]1)Nc1nnc(Br)s1` [Example 35, N-(5-bromo-1,3,4-thiadiazol-2-yl)-2-((4-oxo-1-cyclohexyl-4,5-dihydro-1H-pyrazolo[3,4-d]pyrimidin-6-yl)thio)acetamide] was 1 nM.
In turn, “N-(5-(methylthio)-1,3,4-thiadiazol-2-yl)-2-((4-oxo-1-phenyl-4,5-dihydro-1H-pyrazolo[3,4-d]pyrimidin-6-yl)thio)acetamide [Example 13]” yielded a half-maximal inhibitory concentration (IC50) of 29 nM.
Turning to `O=C(CSc1nc2c(cnn2-c2ccccc2)c(=O)[nH]1)Nc1nnc(-c2ccc(F)cc2)s1` [Example 23, N-(5-(4-fluorophenyl)-1,3,4-thiadiazol-2-yl)-2-((4-oxo-1-phenyl-4,5-dihydro-1H-pyrazolo[3,4-d]pyrimidin-6-yl)thio)acetamide], the IC50 was 10 nM.
The value for `CC(Sc1nc2c(cnn2C2CCOCC2)c(=O)[nH]1)C(=O)Nc1nnc(Br)s1` (stereo not shown) [Example 46, N-(5-bromo-1,3,4-thiadiazol-2-yl)-2-((4-oxo-1-(tetrahydro-2H-pyran-4-yl)-4,5-dihydro-1H-pyrazolo[3,4-d]pyrimidin-6-yl)thio)propanamide] was 0.2 nM; that for `CC(C)n1ncc2c(=O)[nH]c(SCC(=O)Nc3nnc(Br)s3)nc21` [Example 38, N-(5-bromo-1,3,4-thiadiazol-2-yl)-2-((1-isopropyl-4-oxo-4,5-dihydro-1H-pyrazolo[3,4-d]pyrimidin-6-yl)thio)acetamide] was 3 nM; that for `CCSc1nnc(NC(=O)CSc2nc3c(cnn3C3CCC(F)(F)CC3)c(=O)[nH]2)s1` [Example 19, 2-((1-(4,4-difluorocyclohexyl)-4-oxo-4,5-dihydro-1H-pyrazolo[3,4-d]pyrimidine-6-yl)thio)-N-(5-(ethylthio)-1,3,4-thiadiazol-2-yl)acetamide] was 0.6 nM.
The value for `O=C(CSc1nc2c(cnn2-c2ccccc2)c(=O)[nH]1)Nc1nnc(SCc2ccc(Cl)cc2)s1` [Example 8] was 19 nM; that for `O=C(CSc1nc2c(cnn2C2CC2)c(=O)[nH]1)Nc1nnc(Br)s1` [Example 41, N-(5-bromo-1,3,4-thiadiazol-2-yl)-2-((1-cyclopropyl-4-oxo-4,5-dihydro-1H-pyrazolo[3,4-d]pyrimidin-6-yl)thio)acetamide] was 28 nM.
